Results: US10131652B2, “Pyrimidinyloxy benzene derivatives as herbicides” (E. I. DU PONT DE NEMOURS AND COMPANY, priority 2014, dated 2018)

Key:
Assay type in all cases: in vivo
[1] = system: galium (catchweed bedstraw, Galium aparine); assay: Test B postemergence plant response; conditions: 0 to 100 scale, 0 no effect, 100 complete control
Outline: (§1)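 Injury was assessed visually about 10 days after treatment, scored from 0 (no effect) to 100 (complete control) by comparison with untreated controls. Test chemicals had been applied postemergence to potted plants at the one- to two-leaf stage, grown in loam soil and sand in a greenhouse.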

[2] = system: blackgrass (Alopecurus myosuroides); assay: Test B postemergence plant response; conditions: 0 to 100 scale, 0 no effect, 100 complete control
Outline: as §1

[3] = system: oilseed rape (Brassica napus); assay: Test D pre-/postemergence plant response
Outline: (§2)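 Preemergence: seeds in loam/sand blend treated with test chemicals in non-phytotoxic solvent with surfactant; postemergence: plants at 2–18 cm (1- to 4-leaf stage) in peat-based medium sprayed likewise. Greenhouse 13 to 15 days, then visual rating vs controls, 0 (no effect) to 100 (complete control).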

[4] = system: pigweed (Amaranthus retroflexus); assay: Test D pre-/postemergence plant response
Outline: as §2

[5] = system: giant foxtail (Setaria faberii); assay: Test D pre-/postemergence plant response
Outline: as §2

corn (Zea mays) = assay: Test D pre-/postemergence plant response
Outline: as §2

[6] = system: morningglory (Ipomoea coccinea); assay: Test D pre-/postemergence plant response
Outline: as §2

[7] = system: ragweed (common ragweed, Ambrosia elatior); assay: Test D pre-/postemergence plant response
Outline: as §2

[8] = system: Italian ryegrass (Lolium multiflorum); assay: Test D pre-/postemergence plant response
Outline: as §2

[9] = system: yellow nutsedge (Cyperus esculentus); assay: Test D pre-/postemergence plant response
Outline: as §2

[10] = system: waterhemp (common waterhemp, Amaranthus rudis); assay: Test D pre-/postemergence plant response
Outline: as §2

soybean (Glycine max) = assay: Test D pre-/postemergence plant response
Outline: as §2

[11] = system: barnyardgrass (Echinochloa crus-galli); assay: Test D pre-/postemergence plant response
Outline: as §2

[12] = system: chickweed (common chickweed, Stellaria media); assay: Test D postemergence plant response; conditions: for Chickweed plant response rating: scale 0 to 100 (0 no effect, 100 complete control); for Plant response rating, Chickweed: scale 0 to 100, 0 no effect, 100 complete control
Outline: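 Postemergence spray on plants 2–18 cm tall (1- to 4-leaf stage), grown in pots of peat/vermiculite medium. Plants were kept in a greenhouse for 13–15 days, then visually rated against untreated controls on a 0 (no effect) to 100 (complete control) scale.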

[13] = Postemergence, 16 g ai/ha, scale 0 to 100 (0 no effect, 100 complete control)
[14] = Postemergence, 31 g ai/ha, scale 0 to 100 (0 no effect, 100 complete control)
[15] = Postemergence, 62 g ai/ha, scale 0 to 100, 0 no effect, 100 complete control
[16] = Postemergence, 125 g ai/ha, scale 0 to 100, 0 no effect, 100 complete control
[17] = Preemergence, 16 g ai/ha, scale 0 to 100 (0 no effect, 100 complete control)
[18] = Preemergence, 31 g ai/ha, scale 0 to 100 (0 no effect, 100 complete control)
[19] = Preemergence, 62 g ai/ha, scale 0 to 100 (0 no effect, 100 complete control)

Fc1ccc(Oc2ncc(Cl)cn2)c(-c2cc(C(F)F)on2)c1F [Compound 113]
80: Oilseed Rape plant response rating [3, 13] | Plant response rating, Morningglory [6, 16] | Ragweed plant response rating [7, 13] | Waterhemp plant response rating [10, 14] | Soybean plant response rating (soybean (Glycine max); [13]) | Plant response rating (scale 0 to 100), Soybean (soybean (Glycine max); Preemergence, 125 g ai/ha)
5: Foxtail, Giant plant response rating [5, 13] | Foxtail, Giant plant response rating [5, 14] | Corn plant response rating (corn (Zea mays); [13]) | Ryegrass, Italian plant response rating [8, 13] | Ryegrass, Italian plant response rating [8, 14] | Plant response rating, Ryegrass, Italian [8, 15] | Plant response rating, Ryegrass, Italian [8, 16] | Plant response rating, Ryegrass, Italian [8, 17] | Nutsedge, Yellow plant response rating [9, 13] | Nutsedge, Yellow plant response rating [9, 14] | Plant response rating, Nutsedge, Yellow [9, 15]
20: Plant response rating, Corn (corn (Zea mays); [15]) | Plant response rating, Morningglory [6, 17] | Plant response rating, Barnyardgrass [11, 15]
55: Plant response rating, Ragweed [7, 18] | Soybean plant response rating (soybean (Glycine max); [14])
98: Plant response rating, Oilseed Rape [3, 17] | Plant response rating (scale 0 to 100), Barnyardgrass ([11]; Preemergence, 62 g ai/ha)
30: Plant response rating, Barnyardgrass [11, 17]
10: Plant response rating, Foxtail, Giant [5, 15] | Plant response rating, Foxtail, Giant [5, 16] | Corn plant response rating (corn (Zea mays); [14]) | Plant response rating, Ryegrass, Italian [8, 18] | Plant response rating, Nutsedge, Yellow [9, 18] | Barnyardgrass plant response rating [11, 13]
100: Plant response rating, Galium ([1]; 125 g ai/ha, postemergence) | Plant response rating (scale 0 to 100), Oilseed Rape ([3]; Preemergence, 125 g ai/ha) | Plant response rating, Oilseed Rape [3, 18] | Plant response rating, Oilseed Rape [3, 19] | Plant response rating, Pigweed [4, 16] | Plant response rating (scale 0 to 100), Pigweed ([4]; Preemergence, 125 g ai/ha) | Plant response rating, Pigweed [4, 17] | Plant response rating, Pigweed [4, 18] | Plant response rating, Pigweed [4, 19] | Plant response rating (scale 0 to 100), Foxtail, Giant ([5]; Preemergence, 125 g ai/ha) | Plant response rating, Foxtail, Giant [5, 18] | Plant response rating, Foxtail, Giant [5, 19] | Plant response rating (scale 0 to 100), Waterhemp ([10]; Preemergence, 125 g ai/ha) | Plant response rating, Waterhemp [10, 17] | Plant response rating, Waterhemp [10, 18] | Plant response rating, Waterhemp [10, 19] | Plant response rating (scale 0 to 100), Barnyardgrass ([11]; Preemergence, 125 g ai/ha)
65: Plant response rating, Soybean (soybean (Glycine max); [15])
95: Plant response rating, Pigweed [4, 15] | Plant response rating (scale 0 to 100), Morningglory ([6]; Preemergence, 125 g ai/ha) | Plant response rating, Barnyardgrass [11, 18] | Plant response rating, Chickweed ([12]; 125 g ai/ha)
0: Plant response rating, Corn (corn (Zea mays); [17]) | Plant response rating, Corn (corn (Zea mays); [18]) | Plant response rating, Nutsedge, Yellow [9, 17]
85: Plant response rating, Foxtail, Giant [5, 17] | Morningglory plant response rating [6, 13] | Plant response rating, Morningglory [6, 15] | Plant response rating, Morningglory [6, 19] | Plant response rating, Ragweed [7, 19] | Waterhemp plant response rating [10, 13] | Plant response rating, Waterhemp [10, 15] | Chickweed plant response rating ([12]; 31 g ai/ha)
40: Plant response rating (scale 0 to 100), Corn (corn (Zea mays); Preemergence, 125 g ai/ha) | Plant response rating, Ragweed [7, 17] | Plant response rating, Soybean (soybean (Glycine max); [18])
90: Plant response rating, Galium ([1]; 31 g ai/ha, Postemergence) | Plant response rating, Blackgrass ([2]; 125 g ai/ha, postemergence) | Plant response rating, Oilseed Rape [3, 15] | Plant response rating, Oilseed Rape [3, 16] | Pigweed plant response rating [4, 13] | Pigweed plant response rating [4, 14] | Plant response rating, Ragweed [7, 15] | Plant response rating, Ragweed [7, 16] | Plant response rating (scale 0 to 100), Ragweed ([7]; Preemergence, 125 g ai/ha) | Plant response rating, Waterhemp [10, 16] | Plant response rating, Soybean (soybean (Glycine max); [19]) | Plant response rating, Chickweed ([12]; 62 g ai/ha)
75: Morningglory plant response rating [6, 14] | Plant response rating, Soybean (soybean (Glycine max); [16])
15: Plant response rating, Nutsedge, Yellow [9, 16] | Plant response rating, Nutsedge, Yellow [9, 19] | Barnyardgrass plant response rating [11, 14]
70: Plant response rating (scale 0 to 100), Ryegrass, Italian ([8]; Preemergence, 125 g ai/ha) | Chickweed plant response rating ([12]; 16 g ai/ha)
50: Oilseed Rape plant response rating [3, 14]
60: Plant response rating, Blackgrass ([2]; 31 g ai/ha, Postemergence) | Ragweed plant response rating [7, 14] | Plant response rating, Ryegrass, Italian [8, 19] | Plant response rating (scale 0 to 100), Nutsedge, Yellow ([9]; Preemergence, 125 g ai/ha)
35: Plant response rating, Morningglory [6, 18] | Plant response rating, Soybean (soybean (Glycine max); [17])
25: Plant response rating, Corn (corn (Zea mays); [16]) | Plant response rating, Corn (corn (Zea mays); [19]) | Plant response rating, Barnyardgrass [11, 16]
